Data as given in patent US11635429B2 (priority 2019, dated 2023).

Each compound was assayed on anti-diacetoxyscirpenol monoclonal antibody secreted by hybridoma cell strain DAS5G11E7.
Format: binding, mouse

Row | Compound | Cross reactivity [%]
1 | 3-acetyldeoxynivalenol [3-acetyl-DON] | <0.01
2 | C[C@@H]1Cc2c(Cl)cc(C(=O)N[C@@H](Cc3ccccc3)C(=O)O)c(O)c2C(=O)O1 [OTA, ochratoxin] | <0.01
3 | HT-2 toxin | <0.01
4 | CC1=CC2O[C@@H]3[C@H](O)C[C@](C)(C2(CO)C(O)C1=O)[C@]31CO1 (stereo partly shown) [DON, vomitoxin] | <0.01
